From patent publication US20050158412A1, “Type II diabetes” (priority 2004, published 2005)

Molecular target: T1, Aldose Reductase (Rattus norvegicus, UniProt P07943)
T1 construct: Aldose Reductase was isolated from Rat lens; from tissue; host or cells: rat lens
Assay: Aldose Reductase enzyme assay
Type: biochemical
Settings: Wistar rat lens enzyme
Description: Experiments were conducted to test the effects of Morinda citrifolia products on Aldose Reductase. Aldose Reductase is an enzyme that is highly expressed in the eye (lens) of diabetic patients. High expression of Aldose Reductase may lead to blindness. Quantitation of Aldose Redutase activity was achieved by utilizing DL-Glyceraldehyde as a substrate. DL-Glyceraldehyde reacts with NADPH to form NADP+. A spectrophotometer was utilized to quantitiate levels of NADPH. Aldose Reductase was isolated from Rat lens. Quercertin was utilized as a reference compound. Methods employed in this study were adapted from the scientific literature to maximize reliability and reproducibility. […] Biochemical assay results are presented as the percent inhibition of specific binding or activity throughout the report. All other results are expressed in terms of that assay's quantitation method. For primary assays, only the lowest concentration with a significant response judged by the assays' criteria, is shown in this summary.

O=c1c(O)c(-c2ccc(O)c(O)c2)oc2cc(O)cc(O)c12 [Quercetin]
% INH. Aldose Reductase (conc. 1%): 77%
% INH. Aldose Reductase (conc. 5%): 77%
